In patent publication US11629171B2, “Beta-hairpin peptidomimetics” (POLYPHOR AG, priority 2017, dated 2023):
In brackets after ≈: the same amount, converted by molar mass. Where a SMILES comes first, the peptide text is derived from it. Bridges are numbered along the chain shown (N, C = ends). Roman numbers before positions name the chains, in order. [ ]: non-standard residue; d: D form. Tle = CC(C)(C)[C@H](N)C(=O)O; Hiv = CC(C)[C@H](O)C(=O)O; dDab = NCC[C@@H](N)C(=O)O; hSer = N[C@@H](CCO)C(=O)O; Orn = NCCC[C@H](N)C(=O)O; Dab = NCC[C@H](N)C(=O)O; Dap = NC[C@H](N)C(=O)O

Tests used:
Assay type in all cases: cell-based
[1] = system: Pseudomonas aeruginosa ATCC 27853; details: ATCC 27853
How it was run: (§1)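 Two-fold peptide dilutions in polysorbate 80-containing (0.002% final) cation-adjusted Mueller-Hinton II broth were inoculated with about 10^6 CFU/mL. The MIC was taken as the lowest concentration, in μg/mL, preventing visible growth at 18-20 hours and 35° C.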

[2] = system: Acinetobacter baumannii DSM 30008; details: DSM 30008
How it was run: as §1

Escherichia coli 926415 = details: 926415
How it was run: as §1

[3] = system: Enterobacter cloacae 848840; details: 848840
How it was run: as §1

[4] = system: Acinetobacter baumannii 872842; details: 872842
How it was run: as §1

[5] = system: Escherichia coli ATCC 25922; details: ATCC 25922
How it was run: as §1

[6] = system: Klebsiella pneumoniae SSI #3010; details: SSI #3010
How it was run: as §1

[7] = system: Klebsiella pneumoniae 968733; details: 968733
How it was run: as §1

[8] = system: human red blood cells (hRBC); experiment: Hemolysis; details: red cells of human, 1 h, 200
How it was run: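 Percent hemolysis relative to 2% Triton X-100 (100%) and PBS/10% water (0%), from blank-corrected OD540 of diluted supernatants. Peptides tested at 200 μg/mL against 20% (v/v) washed human erythrocytes, 1 h, 37° C, shaking at 300 rpm.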

Row | MIC [1] [µg/mL] | MIC [2] [µg/mL] | MIC (Escherichia coli 926415) [µg/mL] | MIC [3] [µg/mL] | MIC [4] [µg/mL] | MIC [5] [µg/mL] | MIC [6] [µg/mL] | MIC [7] [µg/mL] | Pseudomonas aeruginosa ATCC 27853 MIC [1] [µg/mL] | Acinetobacter baumannii DSM 30008 MIC [2] [µg/mL] | Escherichia coli ATCC 25922 MIC [5] [µg/mL] | Klebsiella pneumoniae SSI #3010 MIC [6] [µg/mL] | SMILES | Hemolysis at 200 μg/mL [8] [%]
1 | 0.125 (≈ 0.0486 µM) | 0.125 (≈ 0.0486 µM) | 0.25 (≈ 0.0971 µM) | 4 (≈ 1.55 µM) | 0.125 (≈ 0.0486 µM) | 0.0625 (≈ 0.0243 µM) | 0.125 (≈ 0.0486 µM) | 1 (≈ 0.389 µM) | – | – | – | – | CC(C)C[C@@H]1NC(=O)[C@@H](CC(C)C)NC(=O)[C@H](CCN)NC(=O)[C@@H](NC(=O)[C@H](CCN)NC(=O)[C@@H](NC(=O)[C@H](CCN)NC(=O)CC[C@@H]2NC(=O)[C@H](CCN)NC(=O)[C@H](Cc3ccc(O)cc3)NC(=O)[C@@H](NC(=O)[C@@H](NC(=O)[C@H](N)CO)C(C)C)CSSC[C@@H](C(=O)N[C@@H](CO)C(=O)N[C@H](CO)C(=O)O)NC(=O)[C@H](C(C)(C)C)NC(=O)[C@H](CO)NC(=O)[C@H](Cc3c[nH]c4ccccc34)NC(=O)[C@H]([C@@H](C)O)NC(=O)[C@@H](CCN)NC2=O)[C@@H](C)O)CCNC(=O)[C@H]([C@@H](C)O)NC(=O)[C@H](CCN)NC(=O)[C@H](CCN)NC1=O [Ex. 242] (I: H-[dS]VCY[Dab]E[dDab]TWS[Tle]CS[dS]-OH / II: [Dab]T[Dab][Dab][Dab][dL]L[Dab][Dab]T; disulfide I:3-I:12; amide I:6-II:N; lactam II:4-II:C) | <1
2 | 0.125 (≈ 0.0518 µM) | 0.03125 (≈ 0.013 µM) | 0.125 (≈ 0.0518 µM) | 0.125 (≈ 0.0518 µM) | 0.0625 (≈ 0.0259 µM) | 0.03125 (≈ 0.013 µM) | 0.0625 (≈ 0.0259 µM) | 0.125 (≈ 0.0518 µM) | – | – | – | – | CC(=O)N[C@H](C(=O)N[C@H](C(=O)N[C@@H](Cc1ccc(O)cc1)C(=O)N[C@H]1CSSC[C@@H](C(=O)N[C@H](C(=O)N[C@@H](C)C(=O)N[C@H](C(N)=O)[C@@H](C)O)C(C)(C)C)NC(=O)[C@H](Cc2c[nH]c3ccccc23)NC(=O)[C@H](CO)NC(=O)[C@@H](CCN)NC(=O)[C@H](CCC(=O)N[C@@H](CCN)C(=O)N[C@H](C(=O)N[C@@H](CN)C(=O)N[C@H]2CCNC(=O)[C@H]([C@@H](C)O)NC(=O)[C@H](CCN)NC(=O)[C@H](CCN)NC(=O)[C@H](CC(C)C)NC(=O)[C@@H](CC(C)C)NC(=O)[C@H](CCN)NC2=O)[C@@H](C)O)NC1=O)[C@@H](C)O)C(C)C [Ex. 220] (I: Ac-VTYCE[dDab]SWC[Tle]AT-NH2 / II: [Dab]T[Dap][Dab][Dab][dL]L[Dab][Dab]T; disulfide I:4-I:9; amide I:5-II:N; lactam II:4-II:C) | <1

Further lines, the compound ahead of its results:

Row | SMILES | MIC [1] [µg/mL] | MIC [2] [µg/mL] | MIC (Escherichia coli 926415) [µg/mL] | MIC [3] [µg/mL] | MIC [4] [µg/mL] | MIC [5] [µg/mL] | MIC [6] [µg/mL] | MIC [7] [µg/mL] | Pseudomonas aeruginosa ATCC 27853 MIC [1] [µg/mL] | Acinetobacter baumannii DSM 30008 MIC [2] [µg/mL] | Escherichia coli ATCC 25922 MIC [5] [µg/mL] | Klebsiella pneumoniae SSI #3010 MIC [6] [µg/mL] | Hemolysis at 200 μg/mL [8] [%]
3 | CC(=O)N[C@H](C(=O)N[C@H]1CCCNC(=O)[C@@H]([C@H](C)O)NC(=O)[C@H](C(C)(C)C)NC(=O)[C@H](CO)NC(=O)[C@H](Cc2c[nH]c3ccccc23)NC(=O)[C@H](CCO)NC(=O)[C@@H](CCN)NC(=O)[C@H](CCC(=O)N[C@@H](CCN)C(=O)N[C@H](C(=O)N[C@@H](CN)C(=O)N[C@H]2CCNC(=O)[C@H]([C@@H](C)O)NC(=O)[C@H](CCN)NC(=O)[C@H](CCN)NC(=O)[C@H](CC(C)C)NC(=O)[C@@H](CC(C)C)NC(=O)[C@H](CCN)NC2=O)[C@@H](C)O)NC(=O)[C@H]([C@@H](C)O)NC(=O)[C@H](Cc2ccc(O)cc2)NC1=O)C(C)C [Ex. 17] (I: Ac-V[Orn]YTE[dDab][hSer]WS[Tle][dT] / II: [Dab]T[Dap][Dab][Dab][dL]L[Dab][Dab]T; lactam I:2-I:C, II:4-II:C; amide I:5-II:N) | 0.25 (≈ 0.107 µM) | 0.0625 (≈ 0.0268 µM) | 0.5 (≈ 0.214 µM) | 0.25 (≈ 0.107 µM) | 0.125 (≈ 0.0535 µM) | 0.0625 (≈ 0.0268 µM) | 0.125 (≈ 0.0535 µM) | 0.5 (≈ 0.214 µM) | – | – | – | – | <1
4 | CC(=O)N[C@H](C(=O)N[C@H]1CSSC[C@@H](C(=O)N[C@@H](CO)C(N)=O)NC(=O)[C@H](C(C)C)NC(=O)[C@H](CCC(=O)O)NC(=O)[C@H](Cc2c[nH]c3ccccc23)NC(=O)[C@H](CCN)NC(=O)[C@@H](CCN)NC(=O)[C@H](CCC(=O)N[C@@H](CCN)C(=O)N[C@H](C(=O)N[C@@H](CN)C(=O)N[C@H]2CCNC(=O)[C@H]([C@@H](C)O)NC(=O)[C@H](CCN)NC(=O)[C@H](CCN)NC(=O)[C@H](CC(C)C)NC(=O)[C@@H](CC(C)C)NC(=O)[C@H](CCN)NC2=O)[C@@H](C)O)NC(=O)[C@H](CO)NC(=O)[C@H](Cc2ccc(O)cc2)NC1=O)C(C)C [Ex. 268] (I: Ac-VCYSE[dDab][Dab]WEVCS-NH2 / II: [Dab]T[Dap][Dab][Dab][dL]L[Dab][Dab]T; disulfide I:2-I:11; amide I:5-II:N; lactam II:4-II:C) | 0.125 (≈ 0.0512 µM) | 0.03125 (≈ 0.0128 µM) | 0.5 (≈ 0.205 µM) | 0.25 (≈ 0.102 µM) | 0.125 (≈ 0.0512 µM) | 0.0625 (≈ 0.0256 µM) | 0.0625 (≈ 0.0256 µM) | 0.5 (≈ 0.205 µM) | – | – | – | – | <1
5 | CC[C@H](C)[C@@H]1NC(=O)[C@H](CO)NC(=O)[C@H](Cc2c[nH]c3ccccc23)NC(=O)[C@H](CO)NC(=O)[C@@H](CCN)NC(=O)[C@H](CCC(=O)N[C@@H](CCN)C(=O)N[C@H](C(=O)N[C@@H](CN)C(=O)N[C@H]2CCNC(=O)[C@H]([C@@H](C)O)NC(=O)[C@H](CCN)NC(=O)[C@H](CCN)NC(=O)[C@H](CC(C)C)NC(=O)[C@@H](CC(C)C)NC(=O)[C@H](CCN)NC2=O)[C@@H](C)O)NC(=O)[C@H](CCN)NC(=O)[C@H](Cc2ccc(O)cc2)NC(=O)[C@@H](NC(=O)[C@@H](NC(C)=O)C(C)C)CCNC(=O)C[C@@H](C(=O)N[C@@H](CO)C(N)=O)NC1=O [Ex. 323] (I: Ac-V[Dab]Y[Dab]E[dDab]SWSIDS-NH2 / II: [Dab]T[Dap][Dab][Dab][dL]L[Dab][Dab]T; lactam I:2-I:11, II:4-II:C; amide I:5-II:N) | – | – | 0.25 (≈ 0.104 µM) | 0.125 (≈ 0.052 µM) | 0.0625 (≈ 0.026 µM) | – | – | 0.5 (≈ 0.208 µM) | 0.125 | 0.0625 | 0.0625 | 0.125 | <1
6 | CC(C)C[C@@H]1NC(=O)[C@@H](CC(C)C)NC(=O)[C@H](CCN)NC(=O)[C@@H](NC(=O)[C@H](CCN)NC(=O)[C@@H](NC(=O)[C@H](CCN)NC(=O)CC[C@@H]2NC(=O)[C@@H]3CSSC[C@H](NC(=O)[C@H](Cc4c[nH]c5ccccc45)NC(=O)[C@H](CCO)NC(=O)[C@@H](CCN)NC2=O)C(=O)N[C@@H](C(C)C)C(=O)N[C@H](C(=O)N[C@@H](CO)C(N)=O)CSSC[C@H](NC(=O)[C@@H](N)C(C)C)C(=O)N[C@@H](Cc2ccc(O)cc2)C(=O)N3)[C@@H](C)O)CCNC(=O)[C@H]([C@@H](C)O)NC(=O)[C@H](CCN)NC(=O)[C@H](CCN)NC1=O [Ex. 176] (I: H-VCYCE[dDab][hSer]WCVCS-NH2 / II: [Dab]T[Dab][Dab][Dab][dL]L[Dab][Dab]T; disulfide I:2-I:11, I:4-I:9; amide I:5-II:N; lactam II:4-II:C) | 0.125 (≈ 0.052 µM) | 0.125 (≈ 0.052 µM) | 0.25 (≈ 0.104 µM) | 0.5 (≈ 0.208 µM) | 0.125 (≈ 0.052 µM) | 0.0625 (≈ 0.026 µM) | 0.125 (≈ 0.052 µM) | 0.25 (≈ 0.104 µM) | – | – | – | – | <1
7 | CC(C)C[C@@H]1NC(=O)[C@@H](CC(C)C)NC(=O)[C@H](CCN)NC(=O)[C@@H](NC(=O)[C@H](CN)NC(=O)[C@@H](NC(=O)[C@H](CCN)NC(=O)CC[C@@H]2NC(=O)[C@H](CO)NC(=O)[C@H](Cc3ccc(O)cc3)NC(=O)[C@@H](NC(=O)[C@@H](O)C(C)C)CCCNC(=O)[C@@H]([C@H](C)O)NC(=O)[C@H](C(C)(C)C)NC(=O)[C@H](CO)NC(=O)[C@H](Cc3c[nH]c4ccccc34)NC(=O)[C@H](CCO)NC(=O)[C@@H](CCN)NC2=O)[C@@H](C)O)CCNC(=O)[C@H]([C@@H](C)O)NC(=O)[C@H](CCN)NC(=O)[C@H](CCN)NC1=O [Ex. 24] (I: H-[Hiv][Orn]YSE[dDab][hSer]WS[Tle][dT] / II: [Dab]T[Dap][Dab][Dab][dL]L[Dab][Dab]T; lactam I:2-I:C, II:4-II:C; amide I:5-II:N) | 0.25 (≈ 0.11 µM) | 0.125 (≈ 0.0548 µM) | 2 (≈ 0.877 µM) | 0.25 (≈ 0.11 µM) | 1 (≈ 0.439 µM) | 0.125 (≈ 0.0548 µM) | 0.125 (≈ 0.0548 µM) | 0.5 (≈ 0.219 µM) | – | – | – | – | <1
